Laboratory results from patent publication US20220386606A1, “SPECIFICALLY SUBSTITUTED 3-PHENYL-5-SPIROCYCLOPENTYL-3-PYRROLIN-2-ONES AND THEIR USE AS HERBICIDES” (Bayer Aktiengesellschaft, priority 2019, published 2022).

Legend:
ALOMY = assay: Post-emergence herbicidal action against ALOMY; format: in vivo, Alopecurus myosuroides; details: 80 g/ha, visual assessment after about 3 weeks
Procedure, shortened: (§1)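 Visual scoring about 3 weeks after treatment gave % herbicidal action relative to untreated plants (0% = control-like, 100% = plants dead). Compounds, as WP or EC with 0.2% wetting agent, were sprayed onto green parts at 600–800 l/ha. Plants had reached the one-leaf stage, 2–3 weeks after sowing in sandy loam under greenhouse conditions.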

SETVI = assay: Post-emergence herbicidal action against SETVI; format: in vivo, Setaria viridis; details: 80 g/ha, visual assessment about 3 weeks after treatment vs untreated controls
Procedure, shortened: as §1

ECHCG = assay: Post-emergence herbicidal action against ECHCG; format: in vivo, Echinochloa crus-galli; details: 80 g/ha, visual assessment about 3 weeks after treatment vs untreated controls
Procedure, shortened: as §1

HORMU = assay: Post-emergence herbicidal action against HORMU; format: in vivo, Hordeum murinum; details: 80 g/ha, visual assessment about 3 weeks after treatment vs untreated controls
Procedure: Seeds of monocotyledonous and dicotyledonous weed and crop plants are laid out in sandy loam soil in wood-fiber pots, covered with soil and cultivated in a greenhouse under good growth conditions. 2 to 3 weeks after sowing, the test plants are treated at the one-leaf stage. The compounds of the invention, formulated in the form of wettable powders (WP) or as emulsion concentrates (EC), are then sprayed onto the green parts of the plants as aqueous suspension or emulsion at a water application rate equating to 600 to 800 l/ha with addition of 0.2% wetting agent. After the test plants have been left to stand in the greenhouse under optimal growth conditions for about 3 weeks, the action of the preparations is assessed visually in comparison to untreated controls (herbicidal action in percent (%): 100% activity=the plants have died, 0% activity=like control plants).

DIGSA = assay: Post-emergence herbicidal action against DIGSA; format: in vivo, Digitaria sanguinalis; details: 80 g/ha, visual assessment about 3 weeks after treatment vs untreated controls
Procedure, shortened: as §1

AVEFA = assay: Post-emergence herbicidal action against AVEFA; format: in vivo, Avena fatua; details: 80 g/ha, visual assessment after about 3 weeks
Procedure, shortened: as §1

LOLRI = assay: Post-emergence herbicidal action against LOLRI; format: in vivo, Lolium rigidum; details: 80 g/ha, visual assessment about 3 weeks after treatment vs untreated controls
Procedure, shortened: as §1

Question: Which “Post-emergence action against ALOMY in %” value (ALOMY) does the source give for `C#Cc1cc(Cl)c(C2=C(O)C3(CCC(COCC)C3)NC2=O)c(OC)c1` (stereo not shown) [Example I-14] here?
Answer: Its value is 90%.

Question: What about the “Post-emergence action against SETVI in %” value (SETVI) of the same compound?
Answer: The value was 90%.

Question: And the “Post-emergence action against ECHCG in %” value (ECHCG)?
Answer: Its value is 90%.

Question: And the “Post-emergence action against HORMU in %” value (HORMU)?
Answer: The value was 90%.

Question: And the “Post-emergence action against DIGSA in %” value (DIGSA)?
Answer: Its value is 90%.

Question: And the “Post-emergence action against AVEFA in %” value (AVEFA)?
Answer: The value was 90%.

Question: What about the “Post-emergence action against LOLRI in %” value (LOLRI) of the same compound?
Answer: Its value is 90%.

Question: Which “Post-emergence action against ALOMY in %” value (ALOMY) does the source give for `CC#Cc1cc(Cl)c(C2=C(O)C3(CCC(COCC)C3)NC2=O)c(CC)c1` (stereo not shown) [Example I-15] here?
Answer: The value was 100%.

Question: And the “Post-emergence action against SETVI in %” value (SETVI)?
Answer: Its value is 100%.

Question: What about the “Post-emergence action against ECHCG in %” value (ECHCG) of the same compound?
Answer: The value was 100%.

Question: What about the “Post-emergence action against HORMU in %” value (HORMU) of the same compound?
Answer: Its value is 100%.

Question: And the “Post-emergence action against DIGSA in %” value (DIGSA)?
Answer: Its value is 100%.

Question: What about the “Post-emergence action against AVEFA in %” value (AVEFA) of the same compound?
Answer: The value was 100%.

Question: And the “Post-emergence action against LOLRI in %” value (LOLRI)?
Answer: Its value is 100%.

Question: Which results are given for `CC#Cc1cc(Cl)c(C2=C(O)C3(CCC(COC)C3)NC2=O)c(CC)c1` (stereo not shown) [Example I-16]?
Answer: Post-emergence action against ALOMY in % (ALOMY): 100%; Post-emergence action against SETVI in % (SETVI): 100%; Post-emergence action against ECHCG in % (ECHCG): 100%; Post-emergence action against HORMU in % (HORMU): 100%; Post-emergence action against DIGSA in % (DIGSA): 100%; Post-emergence action against AVEFA in % (AVEFA): 100%; Post-emergence action against LOLRI in % (LOLRI): 100%

Question: What does the source list for `C#Cc1cc(Cl)c(C2=C(OC(=O)OCC)C3(CCC(COC)C3)NC2=O)c(OC)c1` (stereo not shown) [Example P-02]?
Answer: Post-emergence action against ALOMY in % (ALOMY): 100%; Post-emergence action against SETVI in % (SETVI): 100%; Post-emergence action against ECHCG in % (ECHCG): 100%; Post-emergence action against HORMU in % (HORMU): 100%; Post-emergence action against DIGSA in % (DIGSA): 100%; Post-emergence action against AVEFA in % (AVEFA): 100%; Post-emergence action against LOLRI in % (LOLRI): 100%

Question: `CC#Cc1cc(Cl)c(C2=C(OC(=O)OCC)C3(CCC(COC)C3)NC2=O)c(CC)c1` (stereo not shown) [Example P-06] was tested. Which “Post-emergence action against ALOMY in %” value (ALOMY) did it give?
Answer: Its value is 100%.

Question: What about the “Post-emergence action against SETVI in %” value (SETVI) of the same compound?
Answer: The value was 100%.

Question: What about the “Post-emergence action against ECHCG in %” value (ECHCG) of the same compound?
Answer: The value was 100%.

Question: What about the “Post-emergence action against HORMU in %” value (HORMU) of the same compound?
Answer: The value was 100%.

Question: What about the “Post-emergence action against DIGSA in %” value (DIGSA) of the same compound?
Answer: Its value is 100%.

Question: What about the “Post-emergence action against AVEFA in %” value (AVEFA) of the same compound?
Answer: Its value is 100%.

Question: What about the “Post-emergence action against LOLRI in %” value (LOLRI) of the same compound?
Answer: Its value is 100%.

Question: Which results are given for `CC#Cc1cc(Cl)c(C2=C(OC(=O)C(C)C)C3(CCC(COCC)C3)NC2=O)c(CC)c1` (stereo not shown) [Example P-07]?
Answer: Post-emergence action against ALOMY in % (ALOMY): 100%; Post-emergence action against SETVI in % (SETVI): 100%; Post-emergence action against ECHCG in % (ECHCG): 100%; Post-emergence action against HORMU in % (HORMU): 100%; Post-emergence action against DIGSA in % (DIGSA): 100%; Post-emergence action against AVEFA in % (AVEFA): 100%; Post-emergence action against LOLRI in % (LOLRI): 100%

Question: `CC#Cc1cc(C)c(C2=C(OC(=O)OCC)C3(CCC(COCC)C3)NC2=O)c(Cl)c1` (stereo not shown) [Example P-09] was tested. Which “Post-emergence action against ALOMY in %” value (ALOMY) did it give?
Answer: Its value is 100%.

Question: What about the “Post-emergence action against SETVI in %” value (SETVI) of the same compound?
Answer: Its value is 100%.

Question: And the “Post-emergence action against ECHCG in %” value (ECHCG)?
Answer: The value was 100%.

Question: What about the “Post-emergence action against HORMU in %” value (HORMU) of the same compound?
Answer: The value was 100%.

Question: What about the “Post-emergence action against DIGSA in %” value (DIGSA) of the same compound?
Answer: Its value is 100%.

Question: And the “Post-emergence action against AVEFA in %” value (AVEFA)?
Answer: Its value is 100%.

Question: What about the “Post-emergence action against LOLRI in %” value (LOLRI) of the same compound?
Answer: The value was 100%.

Question: Which “Post-emergence action against ALOMY in %” value (ALOMY) does the source give for `CC#Cc1cc(Cl)c(C2=C(OC(=O)C(C)C)C3(CCC(COCC)C3)NC2=O)c(CC)c1` (stereo not shown) [Example P-12] here?
Answer: Its value is 100%.

Question: What about the “Post-emergence action against SETVI in %” value (SETVI) of the same compound?
Answer: The value was 100%.

Question: And the “Post-emergence action against ECHCG in %” value (ECHCG)?
Answer: Its value is 100%.

Question: And the “Post-emergence action against HORMU in %” value (HORMU)?
Answer: The value was 100%.

Question: And the “Post-emergence action against DIGSA in %” value (DIGSA)?
Answer: The value was 100%.

Question: And the “Post-emergence action against AVEFA in %” value (AVEFA)?
Answer: The value was 100%.

Question: And the “Post-emergence action against LOLRI in %” value (LOLRI)?
Answer: The value was 100%.

Question: `CC#Cc1cc(Cl)c(C2=C(OC(=O)OCC)C3(CCC(COC)C3)NC2=O)c(CC)c1` (stereo not shown) [Example P-15] was tested. Which “Post-emergence action against ALOMY in %” value (ALOMY) did it give?
Answer: The value was 100%.

Question: And the “Post-emergence action against SETVI in %” value (SETVI)?
Answer: The value was 100%.

Question: What about the “Post-emergence action against ECHCG in %” value (ECHCG) of the same compound?
Answer: Its value is 100%.

Question: And the “Post-emergence action against HORMU in %” value (HORMU)?
Answer: The value was 100%.

Question: And the “Post-emergence action against DIGSA in %” value (DIGSA)?
Answer: Its value is 100%.

Question: What about the “Post-emergence action against AVEFA in %” value (AVEFA) of the same compound?
Answer: The value was 100%.

Question: What about the “Post-emergence action against LOLRI in %” value (LOLRI) of the same compound?
Answer: Its value is 100%.

Question: For `C#Cc1cc(Cl)c(C2=C(OC(=O)OCC)C3(CCC(COC)C3)NC2=O)c(OC)c1` (stereo not shown) [Example P-19], which “Post-emergence action against ALOMY in %” value (ALOMY) is on record?
Answer: The value was 80%.

Question: What about the “Post-emergence action against SETVI in %” value (SETVI) of the same compound?
Answer: The value was 100%.

Question: And the “Post-emergence action against ECHCG in %” value (ECHCG)?
Answer: The value was 100%.

Question: What about the “Post-emergence action against HORMU in %” value (HORMU) of the same compound?
Answer: Its value is 100%.

Question: What about the “Post-emergence action against DIGSA in %” value (DIGSA) of the same compound?
Answer: Its value is 90%.

Question: What about the “Post-emergence action against AVEFA in %” value (AVEFA) of the same compound?
Answer: The value was 100%.

Question: And the “Post-emergence action against LOLRI in %” value (LOLRI)?
Answer: Its value is 100%.
